Assay results taken from patent US5008252A, “Process for inhibiting herpes simplex virus-specified thymidine kinase” (The University of North Carolina at Chapel Hill, priority 1987, dated 1991).
pIC50, pKi: −log10 of the molar value. Several values for one entry are separate records, joined by “and”; a condition that tells them apart may be missing. Equal values may be shown once. Entries after “also recorded” stand apart in the source; their conditions may differ.

How the values were obtained:
[1] = target: dThd kinase from HSV-1 (KOS)-infected HeLa BU cells (Human alphaherpesvirus 1 strain KOS, UniProt P17402); assay: Phosphate transfer assay (substrate test); type: biochemical, HSV-1 (strain KOS); conditions: 2 mM ATP
[2] = tested on: dTTP pool of HSV-1-infected HeLa S3 cells; assay: dNTP pool assay; type: cell-based; conditions: 100 μM, 12 h post infection
From the text: (§1) dNTP pool assay. dNTP pool measurements were done as described by Williams, M. W., Chang, C. H. and Cheng, Y.-C. (J. Biomed. Biophys. Meth. 1:153-1 62 (1979)). 5'-Et-dThd alone had no effect on the dNTP pool assay.

[3] = tested on: dNTP pools of HSV-1-infected HeLa BU cells; assay: dNTP pool assay; type: cell-based
From the text: as §1

[4] = tested on: dTTP pools of HSV-1 (strain MDK)-infected HeLa BU cells; assay: dNTP pool assay; type: cell-based; conditions: 100 μM
From the text: as §1

HSV-2 (333) dThd kinase = target: T1, HSV-2 (333) dThd kinase (Human herpesvirus 2, UniProt P04407); assay: dThd kinase assay in vitro; type: biochemical, HSV-2 (strain 333)
T1 construct: kinases were extracted from dThd kinase-deficient HeLa BU cells infected with HSV-1 (strain KOS) and HSV-2(strain 333); endogenous in cells; host or cells: HeLa BU cells (dThd kinase deficient) infected with HSV-2 (strain 333)
From the text: (§2) Enzyme purification, enzyme assays, IC50 and Ki determinations. The cellular cytosolic dThd kinase used to determine the Ki values was isolated from KB6B cells. The HSV-1 and HSV-2dThd kinases were extracted from dThd kinase-deficient HeLa BU cells infected with HSV-1 (strain KOS) and HSV-2(strain 333), respectively. All of the dThd kinases were purified using affinity column chromatography procedures described by Lee, L. S. and Cheng, Y.-C. (J. Biol. Chem. 251:2600-2604 (1976)). The dThd kinase assay used was the same as that described by Cheng, Y.-C. & Ostrander, M. (J. Biol. Chem. 251:2605-2610 (1976)). Incubations were conducted at 37° C. for 60 min and the Ki and 50% […] concentration (IC50) values were determined as described by Cheng, Y.-C. and Prusoff, W. H. (Biochem. Pharmacol. 22:3099-3108 (1976)).

virus DNA synthesis = assay: Virus DNA synthesis, isopycnic centrifugation of 32PO4-labeled DNA; type: cell-based; conditions: 5'-Et-dThd by itself; 32PO4-labeled virus DNA separated from host DNA
From the text: By itself, 5'-Et-dThd had no effect on virus yield (Table II) and on virus DNA synthesis as determined from isopycnic centrifugation studies where ^32 PO4 -labeled virus DNA was separated from host DNA. Nucleoside analogs have been developed based on the "selective alternate substrate" strategy, and depend on viral dThd kinase for their antiviral activity. The effect of 5'-Et-dThd on the antiviral efficacy of five such analogs, ACV, 9-(1, 3-dihydroxy-2-propoxymethyl) guanine (DHPG), fluoroido-arabinosyl-cytosine (FIAC), BVDU and 5'-amino-dThd (5'-NH2 -dThd) has been examined. The effect of 5'-Et-dThd on the activity of the five agents was determined by the virus yield assay using HSV-1 (strain KOS)-infected HeLa BU cells. At 100 μM, 5'-Et-dThd reversed the antiviral activity of ACV (15 μM), DHPG (2 μM), FIAC (1 μM), BVDU (1 μM) and 5'-NH2 -dThd (500 μM)35-, 100-, 98-, 15- and 250-fold, respectively (Table II). […] The results further indicate that the use of 5'-Et-dThd in the prophylaxis/prevention of virus reactivation would require a sequential order when used with virus dThd kinase-dependent antiviral agents.

[5] = target: T2, human cytosolic dThd kinase (Homo sapiens, UniProt P04183); assay: dThd kinase assay in vitro; type: biochemical; conditions: purified enzyme; concentrations as high as 150 μM; 100 μM [14C]dThd
T2 construct: cellular cytosolic dThd kinase used to determine the Ki values was isolated from KB6B cells; endogenous in cells; host or cells: KB6B cells
From the text: as §2

[6] = target: HSV-1 B3 dThd kinase in infected HeLa BU cells (Human alphaherpesvirus 1 strain SC16, UniProt P06479); assay: Intracellular dThd kinase activity ([14C]dThd phosphorylation); type: cell-based, HSV-1 (strain B3); conditions: intracellular [14C]dThd phosphorylation
Method: Intracellular dThd kinase activity. HeLa S3 or HeLa BU cells (1.5×10^6 /ml) were mock infected or infected with HSV-1 or HSV-2at 3 PFU/cell and incubated at 37° C. for a 1 h adsorption period. The medium was then removed, and the cells were washed with growth medium and resuspended at a cell density of 5×10^5 cells/ml in RPMI 1640 medium supplemented with kanamycin (100 μg/ml) and 5% dialyzed fetal bovine serum. At 9 h post-HSV infection, [14C]dThd (0.16 μCi/ml; 1 μM dThd) and different amounts of 5'-Et-dThd were added to the medium depending on experimental conditions. At the end of the labeling period (1 h), the cells were pelleted by centrifugation, washed with phosphate-buffered-saline (PBS) and resuspended in a small volume of PBS. Aliquots were then pipetted directly onto DE81 discs which were immediately washed in 100% EtOH. The DE81 discs were washed two additional times in 100% EtOH, and then radioactivity associated with the discs was measured by scintillation counting in 5 ml of aqueous counting fluid. In this manner, total intracellular dThd kinase activity was determined from the sum of radioactive acid soluble dThd nucleotides plus the acid insoluble dTMP associated with DNA, both precipitated directly on the DE81 discs.

HSV-1 (KOS) dThd kinase = HSV-1 (KOS) dThd kinase (Human alphaherpesvirus 1 strain KOS, UniProt P17402); assay: dThd kinase assay in vitro; type: biochemical, HSV-1 (strain KOS)
From the text: as §2

[7] = 10 μM 5'-Et-dThd, purified enzyme, 100 μM [14C]dThd

T2 sequence (P04183 whole entry): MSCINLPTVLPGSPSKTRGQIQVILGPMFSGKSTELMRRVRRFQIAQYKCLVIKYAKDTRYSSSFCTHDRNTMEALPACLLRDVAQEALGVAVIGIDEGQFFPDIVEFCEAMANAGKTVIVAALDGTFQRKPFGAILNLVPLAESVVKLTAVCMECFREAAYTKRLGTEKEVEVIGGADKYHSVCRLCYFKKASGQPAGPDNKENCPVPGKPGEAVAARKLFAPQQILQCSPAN

5'-ethynylthymidine [5'-Et-dThd]
substrate for virus dThd kinase (phosphorylation of the analogue) [1]: not phosphorylated; also recorded: did not serve as a substrate
reduction of dTTP pool vs untreated infected control [2]: 80%
effect on dTTP pool of HSV-infected mammalian cells ([3]; 100 μM): significantly decreases
reduction of dTTP pool vs untreated infected control ([3]; 100 μM, HSV-1-infected HeLa BU cells, 12 h post infection): 95%
effect on dATP, dCTP and dGTP pools ([3]; 9 h HSV-1 (KOS)-infected HeLa BU cells): not significantly affected; also recorded: no significant effect
inhibition of dTTP pools [4]: 45%
inhibition of dThd kinase activity (HSV-2 (333) dThd kinase; [7]): 25%
pKi (HSV-2 (333) dThd kinase; HSV-2 333, affinity column-purified dThd kinase, ± standard deviation): 6.42
pIC50 (HSV-2 (333) dThd kinase; HSV-2 333, enzyme extracts of infected HeLa BU cells, 100 μM dThd): 4.34
type of inhibition (kinetic studies) (HSV-2 (333) dThd kinase; with respect to dThd): competitive inhibitor
effect on virus DNA synthesis (virus DNA synthesis): no effect
effect on human cytosolic dThd kinase [5]: does not exhibit inhibitory activity; also recorded: no effect; also recorded: No demonstrable effects
pIC50 [6]: > 5.00 and 5.22
inhibition of dThd kinase activity (HSV-1 (KOS) dThd kinase; [7]): 50%
pKi (HSV-1 (KOS) dThd kinase; HSV-1 KOS, affinity column-purified dThd kinase, ± standard deviation): 7.05
pIC50 (HSV-1 (KOS) dThd kinase; HSV-1 KOS, enzyme extracts of infected HeLa BU cells, 100 μM dThd): 5.22
type of inhibition (kinetic studies) (HSV-1 (KOS) dThd kinase; with respect to dThd): competitive inhibitor
